Results taken from patent US20160279236A1, “USE OF RAPAMYCIN AS VACCINE ADJUVANT AND PREPARATION METHOD THEREFOR” (INSTITUT PASTEUR OF SHANGHAI, CHINESE ACADEMY OF SCIENCES, priority 2013, published 2016).
Entries after “also recorded” stand apart in the source; their conditions may differ.

Tests used:
[1] = test system: HBsAg-specific antibody titers; test: HBsAg homologous prime-boost immunization with adjuvants; format: in vivo, C57BL6 mice
Method: HBsAg (5 μg/mouse) was respectively mixed with the following adjuvants or adjuvant combinations: rapamycin (100 μg/mouse)+MPL (10 μg/mouse), MPL (10 μg/mouse), rapamycin (100 μg/mouse) or Alum (200 μg/mouse)+MPL (10 μg/mouse) to immunize (primary immunization) C57BL6 mice. After 4 weeks, each group of mice was boosted according to the same program as the primary immunization. The mice were killed after two weeks, and serum was prepared for determining the content of HBsAg-specific IgG1, IgG2b and IgG2c.

[2] = test system: immune response against HCV outer membrane protein E2; test: HCV E2 protein immunization with adjuvants: T cell and antibody responses; format: in vivo, C57BL/6 mice; settings: E2 protein 20 μg/mouse; Alum 200 μg, MPL 10 μg, rapamycin 100 μg per mouse; IFNγ ELISA of E2-stimulated spleen cells, FIG. 7A
Method: C57BL/6 mice were immunized using purified E2 protein (20 μg/mouse, bought from eEnzyme company, Cat No. HCV-E21b) as antigen in mixture with Alum (200 μg/mouse), MPL (10 μg/mouse), rapamycin (100 μg/mouse), MPL (10 µg/mouse)+rapamycin (100 μg/mouse) respectively, and after 4 weeks, were boosted by the same antigen+adjuvant program. 8 weeks after the secondary immunization, mice were immunized for one time with E2 protein (without MPL or rapamycin) (5 μg/mouse), and the mice were killed after 2 weeks. Spleen cells were taken to determine immune response of T cells (FIG. 7A), and serum was taken to determine antibody titers (FIG. 7B). The spleen cells (5×10^5 cells) were stimulated with 10 μg/ml of E2 protein. After 48 hours, the content of IFNγ in the supernatant was determined by enzyme linked immunosorbent assay (ELISA). […] Meanwhile, antibody response induced by the combination of rapamycin and MPL was also the best, which was better than MPL or alum alone (FIG. 7B).

BMDCs = test: Cytokine production (ELISA) in LPS-stimulated BMDCs pre-treated with rapamycin; format: cell-based, C57BL/6 mice
Method: Bone marrow stem cells from 6-8 weeks aged C57BL/6 mice were taken, and erythrocytes were removed by using ammonium chloride lysate (0.15 M NH4Cl, 1 mM […], 0.1 mM Na2EDTA, pH7.3), and then suspension-cultured at a cell density of 10^6 cells/mL in a dendritic cell (bone-marrow derived dendritic cell, BMDC) differentiation medium (formulation of which was: RPMI 1640 complete medium (comprising 5% (v/v) FBS and 1% (v/v) pen strep), with 20 ng/ml GM-CSF, 10 ng/ml IL-4, 2 mM L-glutamine and 200 μM β-mercaptoethanol being added). After differentiation for 7 days, the cells were purified with CD11c magnetic beads to obtain BMDCs. The purified BMDCs were resuspended in a fresh dendritic cell culture medium (10^6 cells/ml), and inoculated into 24-well plate with 500 μL per well 100 nM of rapamycin or DMSO (control) were used to pre-treat the cells for 1 hour, and then the cells were stimulated with 100 ng/ml LPS for 24 hours. The supernatant was taken and the amount of IL-12 was measured by ELISA.

[3] = test system: HBsAg-specific antibody and T cell responses; test: HBsAg immunization with Compositions 1-3 (different amounts of rapamycin + MPL); format: in vivo, mice
Method: Composition 1, comprising (dosage for one mouse): rapamycin 5 μg, MPL 10 μg, and PBS 0.2 ml;
Composition 2, comprising (dosage for one mouse): rapamycin 20 μg, MPL 10 μg, and PBS 0.2 ml;
Composition 3, comprising (dosage for one mouse): rapamycin 100 μg, MPL 10 μg, and PBS 0.2 mL.
Mice were immunized with Compositions 1-3 in mixture with HBsAg (5 μg, dosage for one mouse) respectively, and were boosted 3 weeks after the primary immunization. The mice were killed after one week, and the serum was prepared to determine the content of HBsAg-specific IgG1, IgG2b and IgG2c (FIG. 5). Meanwhile, spleen cells (5×10^5 cells) were respectively stimulated by using 10 μg/ml of CD8^+ T cell epitope peptide ([…] or VWLSVIWM) and CD4^+ T cell epitope peptide ([…]), and after 48 hours, enzyme linked immunosorbent assays (ELISA) was used to determine the content of IFNγ in the supernatant (FIG. 5b). […] Moreover, at all of the three concentrations, rapamycin has increased T cell response induced by MPL, especially the activation of CD4^+ and CD8^+ T cells which secrete IFN-γ (FIG. 5b).

[4] = after immunized for two times, HBsAg 5 μg/mouse, rapamycin 100 μg/mouse, serum two weeks after boost
[5] = BMDCs, 100 nM rapamycin, 100 ng/ml LPS
[6] = 5 μg of rapamycin + MPL 10 μg, HBsAg 5 μg per mouse

CO[C@H]1C[C@@H]2CC[C@@H](C)[C@@](O)(O2)C(=O)C(=O)N2CCCC[C@H]2C(=O)O[C@H]([C@H](C)C[C@@H]2CC[C@@H](O)[C@H](OC)C2)CC(=O)[C@H](C)/C=C(\C)[C@@H](O)[C@@H](OC)C(=O)[C@H](C)C[C@H](C)/C=C/C=C/C=C/1C [rapamycin]
HBsAg-induced antibody titers, IgG1 [1, 4]: significantly enhance
HBsAg-induced antibody titers, IgG2b [1, 4]: significantly enhance
HBsAg-induced antibody titers, IgG2c [1, 4]: significantly enhance
adjuvant activity of MPL ([1]; homologous prime-boost immunization program, FIG. 6): remarkably enhance
immune response of IFN-γ secreting T cells against HCV E2 [2]: inferior effect
amount of IL-12, increase compared with the control group (BMDCs; 100 nM rapamycin pre-treatment 1 hour, 100 ng/ml LPS 24 hours, supernatant ELISA, DMSO control): more than 3 times
LPS-induced IL-12 production (BMDCs; [5]): enhanced; also recorded: promote
induced-secretion of IL-23 (BMDCs; [5]): remarkably increase; also recorded: enhanced; also recorded: promote
production of IL-10 (BMDCs; [5]): inhibit the production; also recorded: inhibited
LPS-induced IL-12 production (BMDCs; BMDCs, 100 nM rapamycin, 100 ng/ml LPS, listed as Rapamycin): significantly enhance
antibody titers induced by MPL [3, 6]: significantly increase
increase of secretion of IgG2b induced by MPL [3, 6]: ~5 times
increase of secretion of IgG2c induced by MPL [3, 6]: ~5 times
T cell response induced by MPL (IFN-γ secreting CD4+ and CD8+ T cells) ([3]; all three amounts of rapamycin (5, 20, 100 μg) + MPL 10 μg, IFNγ ELISA of peptide-stimulated spleen cells): increased
HBsAg-specific antibody responses enhanced by MPL ([3]; different amounts of rapamycin, FIG. 5a): increased
antibodies induced by MPL ([3]; rapamycin raised to 20 or 100 μg + MPL 10 μg, HBsAg 5 μg per mouse): further enhanced
MPL-induced antibody titers and T cell response, dose dependence ([3]; rapamycin within the range of 5-100 μg): dose-dependent manner
